According to PubChem BioAssay AID330 (DTP/NCI, 2004):
Where “and” joins values, the source holds several entries; their conditions need not be identical. Equal values may be shown once. Toxic doses and inconclusive results are not listed. Rule for the calls: active = survival T/C of 150% or more; inactive = T/C below 125% in these data.

Tested on: P388 leukemia ip, CD2F1 mice, survival T/C
Experiment: NCI In Vivo Anticancer Drug Screen. Data for tumor model P388 Leukemia (intraperitoneal) in CD2F1 (CDF1) mice
Conditions: endpoint: median survival time, higher = longer survival
Summary of the method: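 Mice carrying the transplanted tumor received test compound or vehicle. Survival was recorded in each group, and the value is the treated-group measurement divided by that of the vehicle-treated control group.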

[1] = dose: 12.5 mg/kg/injection, schedule: Q01DX009 (ip), vehicle: saline
[2] = dose: 25.0 mg/kg/injection, schedule: Q01DX009 (ip), vehicle: saline
[3] = dose: 50.0 mg/kg/injection, schedule: Q01DX009 (ip), vehicle: saline
[4] = dose: 100.0 mg/kg/injection, schedule: Q01DX009 (ip), vehicle: saline
[5] = dose: 200.0 mg/kg/injection, schedule: Q01DX009 (ip), vehicle: saline
[6] = dose: 100.0 mg/kg/injection, schedule: Q04DX003 (ip), vehicle: saline with Tween-80
[7] = dose: 12.5 mg/kg/injection, schedule: Q01DX009 (ip), vehicle: saline with Tween-80
[8] = dose: 25.0 mg/kg/injection, schedule: Q01DX009 (ip), vehicle: saline with Tween-80
[9] = dose: 50.0 mg/kg/injection, schedule: Q01DX009 (ip), vehicle: saline with Tween-80
[10] = dose: 50.0 mg/kg/injection, schedule: Q01DX009 (ip), vehicle: Klucel (hydroxypropylcellulose) (HPC)
[11] = dose: 100.0 mg/kg/injection, schedule: Q01DX009 (ip), vehicle: Klucel (hydroxypropylcellulose) (HPC)
[12] = dose: 60.0 mg/kg/injection, schedule: Q01DX005 (ip), vehicle: Klucel + Tween-80
[13] = dose: 120.0 mg/kg/injection, schedule: Q01DX005 (ip), vehicle: Klucel + Tween-80
[14] = dose: 240.0 mg/kg/injection, schedule: Q01DX005 (ip), vehicle: Klucel + Tween-80
[15] = dose: 60.0 mg/kg/injection, schedule: Q01DX005 (ip), vehicle: saline with Tween-80
[16] = dose: 120.0 mg/kg/injection, schedule: Q01DX005 (ip), vehicle: saline with Tween-80
[17] = dose: 240.0 mg/kg/injection, schedule: Q01DX005 (ip), vehicle: saline with Tween-80
[18] = dose: 100.0 mg/kg/injection, schedule: Q04DX003 (ip), vehicle: saline
[19] = dose: 200.0 mg/kg/injection, schedule: Q04DX003 (ip), vehicle: saline
[20] = dose: 400.0 mg/kg/injection, schedule: Q04DX003 (ip), vehicle: saline
[21] = dose: 100.0 mg/kg/injection, schedule: Q01DX009 (ip), vehicle: saline with Tween-80
[22] = dose: 50.0 mg/kg/injection, schedule: Q01DX005 (ip), vehicle: saline with Tween-80

Measured: T/C

CC(=O)NNC(=O)c1ccccn1
inactive: [1] 90 % of control | [2] 92 % of control | [3] 96 % of control | dose: 50.0 mg/kg/injection, schedule: Q01DX009 (ip), vehicle: water 110 % of control | dose: 75.0 mg/kg/injection, schedule: Q01DX009 (ip), vehicle: water 110 % of control | [4] 100 % of control | dose: 100.0 mg/kg/injection, schedule: Q01DX009 (ip), vehicle: water 120 % of control | dose: 125.0 mg/kg/injection, schedule: Q01DX009 (ip), vehicle: water 120 % of control | [5] 88 % of control

Clc1ccc(C(c2ccccc2)N2CCNCC2)cc1 (configuration not stated)
inactive: dose: 25.0 mg/kg/injection, schedule: Q04DX003 (ip), vehicle: saline with Tween-80 99 % of control | dose: 50.0 mg/kg/injection, schedule: Q04DX003 (ip), vehicle: saline with Tween-80 113 % of control | [6] 102 % of control

CN(C)c1ccc(N=Nc2ccccc2)cc1
inactive: dose: 31.25 mg/kg/injection, schedule: Q01DX009 (ip), vehicle: saline with Tween-80 100 % of control | dose: 62.5 mg/kg/injection, schedule: Q01DX009 (ip), vehicle: saline with Tween-80 109 % of control

O=C(Oc1ccccc1OC(=O)c1ccccc1)c1ccccc1
inactive: dose: 6.25 mg/kg/injection, schedule: Q01DX009 (ip), vehicle: saline with Tween-80 108 % of control | [7] 102 % of control | [8] 106 % of control | [9] 108 % of control

CCn1c(=O)c2[nH]c(Br)nc2n(C2CC2)c1=O
inactive: [10] 104 % of control | [11] 106 % of control

CCOc1c(N=Nc2cccc(Cl)c2)c(C)nn1C(=S)SC
inactive: [12] 94 % of control | [13] 98 % of control | [14] 99 % of control

O=[N+]([O-])c1cn(CCCNc2c3ccccc3nc3ccccc23)cn1
inactive: [15] 95 % of control | [16] 107 % of control | [17] 112 % of control

C1CCCC2(CC1)OCCO2
inactive: [18] 101 % of control | [19] 97 % of control | [20] 98 % of control

COC(OC)C(C)N1CCCCC1 (configuration not stated)
inactive: [1] 104 % of control | [2] 97 % of control | [3] 99 % of control and 96 % of control

O=C(NN=C1c2ccccc2-c2ccccc21)Nc1ccccc1
inactive: [9] 95 % of control | [21] 96 % of control | dose: 200.0 mg/kg/injection, schedule: Q01DX009 (ip), vehicle: saline with Tween-80 96 % of control

C=C1C(=O)OC2C1CC(OC(C)=O)/C(C)=C/CCC1(C)OC21 (configuration not stated)
inactive: dose: 4.0 mg/kg/injection, schedule: Q01DX009 (ip), vehicle: Klucel (hydroxypropylcellulose) (HPC) 93 % of control | dose: 8.0 mg/kg/injection, schedule: Q01DX009 (ip), vehicle: Klucel (hydroxypropylcellulose) (HPC) 97 % of control | dose: 16.0 mg/kg/injection, schedule: Q01DX009 (ip), vehicle: Klucel (hydroxypropylcellulose) (HPC) 96 % of control | dose: 32.0 mg/kg/injection, schedule: Q01DX009 (ip), vehicle: Klucel (hydroxypropylcellulose) (HPC) 93 % of control

CCOP(=O)(OCC)C1OCCCO1
inactive: [3] 102 % of control | [4] 98 % of control | [5] 106 % of control

N#C/C(=C\c1ccco1)C(=O)c1ccco1
inactive: [7] 112 % of control | [8] 95 % of control | [9] 89 % of control and 97 % of control

O=C(Nc1ncc([N+](=O)[O-])s1)C(Cl)Cl
inactive: [10] 118 % of control | [11] 111 % of control

CCn1c2ccccc2c2cc(N=Nc3ccc(N)nc3N)ccc21
inactive: [22] 94 % of control | dose: 100.0 mg/kg/injection, schedule: Q01DX005 (ip), vehicle: saline with Tween-80 94 % of control | dose: 200.0 mg/kg/injection, schedule: Q01DX005 (ip), vehicle: saline with Tween-80 96 % of control

CN1C(=O)C2C(C(=O)O)C2N(C)C1=O (configuration not stated)
inactive: dose: 10.0 mg/kg/injection, schedule: Q04DX003 (ip), vehicle: saline 99 % of control | [18] 99 % of control | [19] 99 % of control and 101 % of control | [20] 100 % of control and 101 % of control

CN(C(=S)SSC(=S)N(C)c1ccccc1)c1ccccc1
inactive: dose: 25.0 mg/kg/injection, schedule: Q01DX009 (ip), vehicle: Klucel (hydroxypropylcellulose) (HPC) 91 % of control | [10] 93 % of control | [11] 97 % of control | dose: 200.0 mg/kg/injection, schedule: Q01DX009 (ip), vehicle: Klucel (hydroxypropylcellulose) (HPC) 101 % of control

COC(=O)/C=C(\C)Oc1cc(Cl)c(Cl)cc1Cl
inactive: [21] 91 % of control | dose: 400.0 mg/kg/injection, schedule: Q01DX009 (ip), vehicle: saline with Tween-80 87 % of control

CC1OC(OC2C(Oc3ccc4c(=O)c(-c5ccc(O)c(O)c5O)coc4c3)OC(CO)C(O)C2O)C(O)C(O)C1O (configuration not stated)
inactive: [15] 103 % of control | [16] 101 % of control | [17] 103 % of control

CCC(=O)/C(=C\c1ccccc1Cl)C(C)=O
inactive: [6] 105 % of control | dose: 200.0 mg/kg/injection, schedule: Q04DX003 (ip), vehicle: saline with Tween-80 110 % of control | dose: 400.0 mg/kg/injection, schedule: Q04DX003 (ip), vehicle: saline with Tween-80 95 % of control

CCN(CC)c1ccc(N=Nc2ccc(Br)cn2)c(O)c1
inactive: [12] 104 % of control | [13] 95 % of control | [14] 92 % of control

C#CCN1CC(OC)Nc2c(O)cccc2C1=O (configuration not stated) (tested in a mixture with another compound)
inactive: dose: 2.5 mg/kg/injection, schedule: Q01DX005 (ip), vehicle: water 113 % of control | dose: 5.0 mg/kg/injection, schedule: Q01DX005 (ip), vehicle: water 110 % of control and 113 % of control | dose: 10.0 mg/kg/injection, schedule: Q01DX005 (ip), vehicle: water 123 % of control | dose: 20.0 mg/kg/injection, schedule: Q01DX005 (ip), vehicle: water 119 % of control and 123 % of control

O=C1c2ccccc2C(=O)N1CN(CS(=O)(=O)c1ccccc1)c1ccccc1
inactive: dose: 60.0 mg/kg/injection, schedule: Q01DX005 (ip), vehicle: Klucel (hydroxypropylcellulose) (HPC) 98 % of control | dose: 120.0 mg/kg/injection, schedule: Q01DX005 (ip), vehicle: Klucel (hydroxypropylcellulose) (HPC) 88 % of control | dose: 240.0 mg/kg/injection, schedule: Q01DX005 (ip), vehicle: Klucel (hydroxypropylcellulose) (HPC) 86 % of control

CCCCCNc1ccc(NCCCCC)c2c1C(=O)c1ccccc1C2=O
inactive: [3] 98 % of control | [4] 99 % of control | [5] 89 % of control

Cc1nc(N)nc(N)c1-c1ccc(N)cc1
inactive: dose: 12.5 mg/kg/injection, schedule: Q01DX005 (ip), vehicle: saline with Tween-80 105 % of control | dose: 25.0 mg/kg/injection, schedule: Q01DX005 (ip), vehicle: saline with Tween-80 103 % of control | [22] 98 % of control and 105 % of control
